Data: patent US8609690B2, “Aryl- and heteroarylcarbonyl derivatives of substituted nortropanes, medicaments containing such compounds and their use” (Boehringer Ingelheim International GmbH, priority 2008, dated 2013)

Target: T1, 11β-HSD 1 (Homo sapiens, UniProt P28845)
T1 construct: detecting cortisol generated from cortisterone by human liver microsomes; from tissue; host or cells: human liver microsomes
Assay: In vitro inhibition of 11β-HSD 1, HTRF detection of cortisol generated by human liver microsomes
Type: biochemical
Conditions: 1 μM test compound, 100% indicates no inhibition, zero or below zero indicates complete inhibition (relative to carbenoxolone)
Procedure: Briefly, compounds were incubated for 1 hour at 37° C. in Tris buffer (20 mM tris, 5 mM EDTA, pH 6.0) containing NADPH (200 μM) and cortisone (80 nM). Cortisol generated in the reaction is then detected with a competitive immunoassay, involving two HTRF conjugates: cortisol linked to XL665 and anti-cortisol antibody labeled with Europium cryptate. The incubation period for detection reaction was typically 2 hours. The amount of cortisol is determined by reading the time-resolved fluorescence of the wells (Ex 320/75 nm; Em 615/8.5 nm and 665/7.5 nm). The ratio of the two emission signals is then calculated (Em665*10000/Em615). […] Each assay also contained a calibration curve with cortisol to transform the fluorescent data into cortisol concentrations. Percent inhibition of each compound was determined relative to the carbenoxolone signal. In Table 2 the 11β-HSD 1 inhibitory activities at 1 μM concentration of test compound, determined as described above, of the compounds listed in Table 3 are compiled, wherein 100% indicates no inhibition and a value of zero or below zero indicates complete inhibition.

T1 sequence (P28845 whole entry): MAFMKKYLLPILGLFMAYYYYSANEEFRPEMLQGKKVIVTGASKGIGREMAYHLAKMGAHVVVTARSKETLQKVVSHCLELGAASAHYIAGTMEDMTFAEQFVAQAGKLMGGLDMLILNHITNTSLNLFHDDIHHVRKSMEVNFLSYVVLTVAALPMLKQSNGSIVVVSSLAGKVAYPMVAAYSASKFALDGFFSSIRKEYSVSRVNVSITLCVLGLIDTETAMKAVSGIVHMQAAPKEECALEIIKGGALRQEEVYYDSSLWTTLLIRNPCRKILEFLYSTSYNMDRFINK

SMILES | Inhibitory activity on 11β-HSD 1, % CTL
CC(C)(C)Oc1cccc(C(=O)N2[C@@H]3CC[C@H]2C[C@@H](c2ccc(F)cc2)C3)c1 [Example 45, endo-(3-tert-Butoxy-phenyl)-[3-(4-fluoro-phenyl)-8-aza-bicyclo[3.2.1]oct-8-yl]-methanone] | 82 % CTL
O=C1Cc2ccc(C(=O)N3[C@@H]4CC[C@H]3C[C@@H](c3ccc(F)cc3)C4)cc2N1 [Example 46, endo-6-[3-(4-Fluoro-phenyl)-8-aza-bicyclo[3.2.1]octane-8-carbonyl]-1,3-dihydro-indol-2-one] | 97 % CTL
O=C1Cc2cc(C(=O)N3[C@@H]4CC[C@H]3C[C@@H](c3ccc(F)cc3)C4)ccc2N1 [Example 47, endo-5-[3-(4-Fluoro-phenyl)-8-aza-bicyclo[3.2.1]octane-8-carbonyl]-1,3-dihydro-indol-2-one] | −17 % CTL
Nc1nc2cc(C(=O)N3[C@@H]4CC[C@H]3C[C@@H](c3ccc(F)cc3)C4)ccc2[nH]1 [Example 48, endo-(2-Amino-1H-benzoimidazol-5-yl)-[3-(4-fluoro-phenyl)-8-aza-bicyclo[3.2.1]oct-8-yl]-methanone] | 1 % CTL
CC(C)(C)Oc1ccc(C(=O)N2[C@@H]3CC[C@H]2C[C@@H](c2ccc(F)cc2)C3)cc1 [Example 49, endo-(4-tert-Butoxy-phenyl)-[3-(4-fluoro-phenyl)-8-aza-bicyclo[3.2.1]oct-8-yl]-methanone] | 67 % CTL
Cc1cc2cc(C(=O)N3[C@@H]4CC[C@H]3C[C@@H](c3ccc(F)cc3)C4)ccc2[nH]1 [Example 50, endo-[3-(4-Fluoro-phenyl)-8-aza-bicyclo[3.2.1]oct-8-yl]-(2-methyl-1H-indol-5-yl)-methanone] | 6 % CTL
CCn1ccc2ccc(C(=O)N3[C@@H]4CC[C@H]3C[C@@H](c3ccc(F)cc3)C4)cc21 [Example 51, endo-(1-Ethyl-1H-indol-6-yl)-[3-(4-fluoro-phenyl)-8-aza-bicyclo[3.2.1]oct-8-yl]-methanone] | 41 % CTL
Cc1[nH]c2cc(C(=O)N3[C@@H]4CC[C@H]3C[C@@H](c3ccc(F)cc3)C4)ccc2c1C [Example 52, endo-(2,3-Dimethyl-1H-indol-6-yl)-[3-(4-fluoro-phenyl)-8-aza-bicyclo[3.2.1]oct-8-yl]-methanone] | 82 % CTL
Cn1ccc2ccc(C(=O)N3[C@@H]4CC[C@H]3C[C@@H](c3ccc(F)cc3)C4)cc21 [Example 53, endo-[3-(4-Fluoro-phenyl)-8-aza-bicyclo[3.2.1]oct-8-yl]-(1-methyl-1H-indol-6-yl)-methanone] | −55 % CTL
O=C(c1ccc2c(c1)CCCN2)N1[C@@H]2CC[C@H]1C[C@@H](c1ccc(F)cc1)C2 [Example 54, endo-[3-(4-Fluoro-phenyl)-8-aza-bicyclo[3.2.1]oct-8-yl]-(1,2,3,4-tetrahydro-quinolin-6-yl)-methanone] | −56 % CTL
Cc1ccc(C(=O)N2[C@@H]3CC[C@H]2C[C@@H](c2ccc(F)cc2)C3)cc1O [Example 55, endo-[3-(4-Fluoro-phenyl)-8-aza-bicyclo[3.2.1]oct-8-yl]-(3-hydroxy-4-methyl-phenyl)-methanone] | 31 % CTL
O=C(c1ccccc1F)N1[C@@H]2CC[C@H]1C[C@@H](c1ccc(F)cc1)C2 [Example 57, endo-(2-Fluoro-phenyl)-[3-(4-fluoro-phenyl)-8-aza-bicyclo[3.2.1]oct-8-yl]-methanone] | 63 % CTL
CC(=O)Cc1ccc(C(=O)N2[C@@H]3CC[C@H]2C[C@@H](c2ccc(F)cc2)C3)cc1 [Example 58, endo-1-{4-[3-(4-Fluoro-phenyl)-8-aza-bicyclo[3.2.1]octane-8-carbonyl]-phenyl}-propan-2-one] | 68 % CTL
